From patent US20230250064A1, “PREPARATION METHOD FOR FUSED PYRAZOLE-TYPE COMPOUND” (SHANGHAI MEIYUE BIOTECH DEVELOPMENT CO., LTD., priority 2020, published 2023)

Target: T1, human IRAK4 (Homo sapiens, UniProt Q9NWZ3)
T1 construct: purchased Carna
T1 sequence (Q9NWZ3 1-460): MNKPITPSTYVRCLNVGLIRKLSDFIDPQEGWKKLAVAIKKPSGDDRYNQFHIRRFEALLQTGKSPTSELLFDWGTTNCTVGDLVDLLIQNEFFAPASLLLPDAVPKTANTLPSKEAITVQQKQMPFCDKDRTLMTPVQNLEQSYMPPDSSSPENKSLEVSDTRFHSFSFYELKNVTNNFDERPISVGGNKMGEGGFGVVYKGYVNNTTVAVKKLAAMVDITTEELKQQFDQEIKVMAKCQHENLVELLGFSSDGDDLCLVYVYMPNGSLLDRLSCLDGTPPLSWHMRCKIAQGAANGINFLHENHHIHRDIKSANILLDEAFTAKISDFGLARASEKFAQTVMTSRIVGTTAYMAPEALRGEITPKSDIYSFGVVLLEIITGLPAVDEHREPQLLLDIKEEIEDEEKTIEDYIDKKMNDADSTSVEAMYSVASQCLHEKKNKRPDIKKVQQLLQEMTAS
Assay: IRAK4 MSA (Mobility-Shift Assay), inhibition of human IRAK4 kinase activity
Assay type: biochemical
Conditions: GST-IRAK4 1 nM, ATP at Km concentration (37 μM), 28° C. for 1 h, Caliper EZ Reader; read-out: IC50 against human IRAK4 kinase activity
Experimental: The inhibitory activity of the compounds against IRAK4 at the Km concentration of ATP was measured in IRAK4 MSA (Mobility-Shift Assay, a mobility detection of microfluidic chip technology).
A recombinant fusion protein of N-terminal GST (glutathione-S-transferase) and human IRAK4 was used as enzyme (GST-IRAK4, kinase IRAK4 (Carna)) at a final concentration of 1 nM; ATP (Sigma) was at a final concentration of 37 μM; the substrates used for the kinase reaction were 5-FAM (5-carboxyfluorescein)-labeled polypeptide (5-FAM-IPTSPITTTYFFFKKK-COOH) and substrate peptide FAM-P8 (GL Biochem) at final concentrations of 5 μM.
In this assay, a 500 μM stock solution of the compounds was prepared in 100% DMSO, and serially 4-fold diluted to the 10th concentrations with 100% DMSO, followed by a 10-fold dilution with the compound buffer (50 mM HEPES, pH 7.5, 0.00015% Brij-35) to give intermediate dilutions of the compounds at final concentrations of 10 μM-0.04 nM containing 10% DMSO. The intermediate dilutions was transferred into a black 384-well plate at a volume of 5μL.
Kinase IRAK4 was diluted to 2.5 nM with the kinase buffer (50 mM HEPES, pH 7.5, 0.00015% Brij-35, 2 mM DTT). 10 μL of the IRAK4 dilution was transferred to the 384-well plate and co-incubated with the compound for 10-15 min.
The substrate and ATP were diluted to 12.5 μM and 92.5 μM with reaction buffer (50 mM HEPES, pH 7.5, 0.00015% Brij-35, 10 mM MgCl2), respectively. 10 μL of the dilutions was transferred to the 384-well plate and incubated at 28° C. for 1 h. The reaction was terminated by adding 25 μL of 50 mM EDTA to the 384-well plate.
The inhibition rates of IRAK4 by the compounds were calculated by measuring the conversion rate of phosphorylation of the substrate using a Caliper EZ Reader (PerkinElmer) and the IC50 was calculated by XL-fit software.

IC50 [nM] | Molecule
4.6 | COc1cc2nn([C@H]3CC[C@](C)(O)CC3)cc2cc1NC(=O)c1cccc(C)[n+]1[O-] [Compound 4, 6-methyl-1oxo-pyridine-2-carbomoylic acid [2-(4′-hydroxy-4-methyl-cyclohexyl)-6-methoxy-2H-indazol-5-yl]-amide]
2.5 | COc1cc2nn([C@H]3CC[C@H](O)CC3)cc2cc1NC(=O)c1cccc(C2CC2)[n+]1[O-] [Compound 2, 6-cyclopropyl-1-oxy-pyridine-2-carbomoylic acid [2-(4′-hydroxy-trans-cyclohexyl)-6-methoxy-2H-indazol-5-yl]-amide]
1.1 | COc1cc2nn([C@H]3C[C@H](C(C)(C)O)C3)cc2cc1NC(=O)c1cccc(C(F)(F)F)n1 [Compound 1, 6-trifluoromethyl-pyridine-2-carbomoylic acid {2-[3′-(1-hydroxy-1-methyl-ethyl)-cyclobutyl]-6-methoxy-2H-indazol-5-yl} -amide]

Molecule | IC50 [nM]
quinoline-8-carbomoylic acid [2-(4′-hydroxy-4-methyl-cyclohexyl)-6-methoxy-2H-indazol-5-yl]-amide [Compound 3] | 3.3
